Data published in patent publication US11471537B2, “Oligomer extended insulin-Fc conjugates” (Novo Nordisk A/S, priority 2017, dated 2022).
“And” between values parts separate entries of the source, which are not always exact repeats. Equal entries are not always repeated.

What was measured:
[1] = tested on: Sprague-Dawley rats; assay: PD studies: blood glucose after subcutaneous dosing; type: in vivo; conditions: sc, dose 30 nmol/kg
Experimental: The pharmacodynamic effect of the Insulin Fc conjugates of the examples were investigated in normal male Sprague-Dawley rats weighing approx. 350 g at study start.
Animals had free access to food and water during the experiment period. They were dosed subcutaneously in the neck region with a dose of 30 nmol/kg (unless otherwise stated in the figures below). Blood samples for blood glucose and plasma insulin analysis were collected from the tongue veins up to 10 days post dosing. Blood glucose was measured using Biosen S Line (EKF).

[2] = target: insulin receptor A (Homo sapiens, UniProt P06213); assay: Insulin receptor affinity; type: binding; conditions: relative to affinity of human insulin for insulin receptor A (100%)
Sequence of insulin receptor A (P06213 28-1370 isoform P06213-2 limits assumed): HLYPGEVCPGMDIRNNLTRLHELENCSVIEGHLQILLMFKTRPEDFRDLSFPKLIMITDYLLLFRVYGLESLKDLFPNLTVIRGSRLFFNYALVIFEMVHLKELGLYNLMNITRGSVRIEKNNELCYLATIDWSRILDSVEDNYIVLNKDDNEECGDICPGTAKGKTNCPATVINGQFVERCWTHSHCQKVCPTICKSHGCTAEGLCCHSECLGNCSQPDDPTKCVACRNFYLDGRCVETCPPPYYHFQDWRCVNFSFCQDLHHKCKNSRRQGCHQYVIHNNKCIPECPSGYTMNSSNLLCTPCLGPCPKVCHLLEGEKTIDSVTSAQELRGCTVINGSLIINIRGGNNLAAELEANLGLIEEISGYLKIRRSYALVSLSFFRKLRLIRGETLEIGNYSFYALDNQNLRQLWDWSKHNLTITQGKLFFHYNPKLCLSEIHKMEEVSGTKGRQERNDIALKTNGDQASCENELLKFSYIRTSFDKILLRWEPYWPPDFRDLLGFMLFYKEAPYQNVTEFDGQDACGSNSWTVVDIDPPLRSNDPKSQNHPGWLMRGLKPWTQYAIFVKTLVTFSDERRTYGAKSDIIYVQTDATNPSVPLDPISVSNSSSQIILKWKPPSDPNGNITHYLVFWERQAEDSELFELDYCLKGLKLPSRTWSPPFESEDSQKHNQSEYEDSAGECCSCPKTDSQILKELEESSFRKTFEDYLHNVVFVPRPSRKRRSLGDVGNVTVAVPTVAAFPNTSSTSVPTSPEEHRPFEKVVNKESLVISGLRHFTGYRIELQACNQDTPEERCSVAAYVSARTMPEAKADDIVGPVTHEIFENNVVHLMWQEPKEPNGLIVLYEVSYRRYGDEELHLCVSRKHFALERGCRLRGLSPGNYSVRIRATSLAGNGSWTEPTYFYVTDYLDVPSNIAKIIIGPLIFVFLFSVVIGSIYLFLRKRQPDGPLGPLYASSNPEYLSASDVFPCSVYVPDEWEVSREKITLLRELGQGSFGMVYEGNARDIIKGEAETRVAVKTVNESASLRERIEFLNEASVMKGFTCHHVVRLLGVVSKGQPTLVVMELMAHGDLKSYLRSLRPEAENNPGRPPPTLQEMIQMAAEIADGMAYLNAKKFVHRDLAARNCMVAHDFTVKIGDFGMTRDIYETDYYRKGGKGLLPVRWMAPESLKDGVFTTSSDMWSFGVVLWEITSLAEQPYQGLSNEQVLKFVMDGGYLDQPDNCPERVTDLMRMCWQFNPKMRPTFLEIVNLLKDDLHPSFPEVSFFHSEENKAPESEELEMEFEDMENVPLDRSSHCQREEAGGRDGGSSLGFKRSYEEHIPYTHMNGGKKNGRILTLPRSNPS
Sequence of insulin receptor A (P06213 763-1382 partner limits assumed): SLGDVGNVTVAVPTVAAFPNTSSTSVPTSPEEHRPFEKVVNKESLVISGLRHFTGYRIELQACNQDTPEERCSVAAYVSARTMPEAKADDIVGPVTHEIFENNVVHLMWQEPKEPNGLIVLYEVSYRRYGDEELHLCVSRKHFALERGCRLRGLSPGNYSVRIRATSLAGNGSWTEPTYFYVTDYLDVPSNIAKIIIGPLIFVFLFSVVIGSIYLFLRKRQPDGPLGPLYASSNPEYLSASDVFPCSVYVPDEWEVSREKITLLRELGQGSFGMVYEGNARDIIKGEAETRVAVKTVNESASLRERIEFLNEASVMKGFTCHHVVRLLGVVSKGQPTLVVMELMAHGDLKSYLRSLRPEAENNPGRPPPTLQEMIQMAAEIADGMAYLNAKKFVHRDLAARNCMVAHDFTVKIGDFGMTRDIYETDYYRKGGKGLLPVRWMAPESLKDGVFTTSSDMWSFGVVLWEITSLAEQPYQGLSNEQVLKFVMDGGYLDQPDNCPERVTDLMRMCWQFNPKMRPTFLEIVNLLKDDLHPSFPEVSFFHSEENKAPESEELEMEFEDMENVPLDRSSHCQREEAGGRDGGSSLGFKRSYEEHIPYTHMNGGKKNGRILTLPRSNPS

[3] = tested on: isolated rat adipocytes; assay: Insulin-stimulated lipogenesis; type: cell-based; conditions: 1% HSA; relative to the activity of human insulin (100%)
Experimental: Insulin-stimulated lipogenesis was measured in isolated rat adipocytes in presence of 1% HSA as described in Moody A J, Stan M A, Stan M, Gliemann J. A Simple Free Fat Cell Bioassay for Insulin. Hormone And Metabolic Research. 1974; 6(1):12-6, see results in Table 6.

[4] = PK studies: intravenous and subcutaneous administration to SD rats, insulin-Fc concentrations by immuno-assay; type: in vivo; conditions: for PK rat sc [T½ (h)] Mean Value: subcutaneous
Experimental: Insulin-Fc conjugates were tested in vivo by intravenous and subcutaneous administration to SD rats. Blood samples were collected and the insulin-Fc concentrations were measured by immuno-assay.

Substance | Average blood glucose ([1]; time 0 days) [mM] | Average blood glucose ([1]; time 0.041667 days) [mM] | Average blood glucose ([1]; time 0.125 days) [mM] | Average blood glucose ([1]; time 0.291667 days) [mM] | Average blood glucose ([1]; time 1 day) [mM] | Average blood glucose ([1]; time 2 days) [mM] | Average blood glucose ([1]; time 3 days) [mM] | Average blood glucose ([1]; time 4 days) [mM] | Average blood glucose ([1]; time 6 days) [mM] | Average blood glucose ([1]; time 7 days) [mM] | Average blood glucose ([1]; time 8 days) [mM] | Insulin receptor affinity [IC50 relative to HI (%)] Mean Value [2] [%] | Lipogenesis in rat adipocytes [Potency (%)] Mean Value [3] [%] | PK rat iv [T½ (h)] Mean Value [4] [h] | PK rat sc [T½ (h)] Mean Value [4] [h] | Average blood glucose ([1]; time 9 days) [mM] | Average blood glucose ([1]; time 10 days) [mM] | other results
A14E, A21G, A22(GQEP)12, A70K^, A71P, B25H, B29R, desB30 human insulin/(227A, 234A, 235K, 297E, 315Q, 384Q, des447 hIgG4-Fc(228-447))4-[bis[2-[(2-acetyl)amino]ethyl]amino]-4-oxo-butanoyl Conjugate [Example 5.17] | 6.372 | 5.84 | 5.14 | 3.672 | 2.6 | 2.704 | 2.772 | 5.232 | 5.88 | 5.908 | 5.656 | 3.98 | 4.39 | 46.2 | 40.3 |  |  | 
(A14E, A21G, A22(GQAP)19, A98K^, A99P, B25H, B29R, desB30 human insulin)/(227A, 234A, 235K, 297E, 315Q, 384Q, des447 hIgG4-Fc(228-447))6-[bis[2-[(2-acetyl)amino]ethyl]amino]-6-oxo-hexanoyl conjugate [Example 5.16] | 6.544 | 5.972 | 4.74 | 4.028 | 2.42 | 2.592 | 3.156 | 5.7 | 5.784 | 5.848 | 5.72 | 3.86 | 4.34 | 25.7 | 36.2 |  |  | 
A14E, A21G, A22(GQAPGQEP)6, A70K^, A71P, B25H, B29R, desB30 human insulin/(227A, 234A, 235K, 297E, 315Q, 384Q, des447 hIgG4-Fc(228-447))4-[bis[2-[(2-acetyl)amino]ethyl]amino]-4-oxo-butanoyl Conjugate [Example 5.14] | 6.248 | 5.32 | 4.08 | 3.048 | 2.356 | 2.4 | 2.832 | 4.304 | 6.032 | 6.076 | 5.5 | 5.37 | 4.86 | 46.6 | 54.0 |  |  | 
(A14E, A21G, A22(GQAP)18, A94G, A95Q, A96A, A97K^, A98P, B29R, desB30 human insulin)/(227A, 234A, 235K, 297E, 315Q, 384Q, des447 hIgG4-Fc(228-447))4-[bis[2-[(2-acetyl)amino]ethyl]amino]-4-oxo-butanoyl Conjugate [Example 5.26] | 5.82 | 5.984 | 5.3 | 4.384 | 3.332 | 4.992 | 6.352 | 5.804 | 6.232 | 6.048 | 6.236 | 3.95 | 3.23 | 49.8 | 53.5 | 5.972 | 5.88 | Average blood glucose ([1]; time 5 days): 5.752 mM
(A14E, A21G, A22(GQAP)24, A118G, A119Q, A120A, A121K^, A122P, B25H, B29R, desB30 human insulin)/(227A, 234A, 235K, 297E, 315Q, 384Q, des447 hIgG4-Fc(228-447))4-[bis[2-[(2-acetyl)amino]ethyl]amino]-4-oxo-butanoyl Conjugate [Example 5.23] | 5.384 | 5.768 | 4.808 | 4.136 | 2.86 | 2.6 | 3.536 | 5.544 | 5.796 | 6.056 | 5.672 | 4.70 | 5.36 | 57.1 | 73.2 | 5.62 | 6.308 | Average blood glucose ([1]; time 5 days): 5.684 mM
A14E, A21G, A22(GQAPGQAPGQEP)6-GQAP, A98K^, A99P, B29R, desB30 human insulin/(227A, 234A, 235K, 297E, 315Q, 384Q, des447 hIgG4-Fc(228-447))4-[bis[2-[(2-acetyl)amino]ethyl]amino]-4-oxo-butanoyl Conjugate [Example 5.19] | 6.4 | 5.988 | 4.92 | 3.84 | 2.632 | 2.62 | 4.312 | 6.104 | 5.9 | 6.128 | 5.512 | 4.00 | 3.02 | 30.8 | 55.0 |  |  | 
(A14E, A21G, A22(GQEP)19, A98K^, A99P, B25H, B29R, desB30 human insulin)/(227A, 234A, 235K, 297E, 315Q, 384Q, des447 hIgG4-Fc(228-447))4-[bis[2-[(2-acetyl)amino]ethyl]amino]-4-oxo-butanoyl Conjugate [Example 5.12] |  |  |  |  |  |  |  |  |  |  |  | 1.85 | 2.35 | 23.3 | 25.1 | 5.204 | 5.556 | Average blood glucose ([1]; time 0 days, listed as Ex 5.12): 5.816 mM and 5.516 mM; Average blood glucose ([1]; time 0.041667 days, listed as Ex 5.12): 5.598 mM and 6.16 mM; Average blood glucose ([1]; time 0.125 days, listed as Ex 5.12): 5.674 mM and 4.608 mM; Average blood glucose ([1]; time 0.208333 days): 5.338 mM; Average blood glucose ([1]; time 0.291667 days, listed as Ex 5.12): 4.598 mM and 3.988 mM; Average blood glucose ([1]; time 1 day, listed as Ex 5.12): 2.986 mM and 2.88 mM; Average blood glucose ([1]; time 2 days, listed as Ex 5.12): 2.524 mM and 2.348 mM; Average blood glucose ([1]; time 3 days, listed as Ex 5.12): 2.576 mM and 2.972 mM; Average blood glucose ([1]; time 4 days, listed as Ex 5.12): 3.284 mM and 6.028 mM; Average blood glucose ([1]; time 5 days, listed as Ex 5.12): 6.884 mM and 6.06 mM; Average blood glucose ([1]; time 6 days, listed as Ex 5.12): 6.506 mM and 5.74 mM; Average blood glucose ([1]; time 7 days, listed as Ex 5.12): 6.202 mM and 5.716 mM; Average blood glucose ([1]; time 8 days, listed as Ex 5.12): 6.046 mM and 5.568 mM
(A14E, A21G, A22(GQAP)19, A98K^, A99P, B25H, B29R, desB30 human insulin)/(227A, 234A, 235K, 297E, 315Q, 384Q, des447 hIgG4-Fc(228-447))4-[bis[2-[(2-acetyl)amino]ethyl]amino]-4-oxo-butanoyl Conjugate [Example 5.15] | 6.748 | 6.168 | 5.052 | 3.292 | 2.524 | 2.752 | 4.116 | 5.744 | 6.32 | 6.516 | 5.904 | 3.68 | 3.68 | 58.4 | 67.6 |  |  | 
